Source: patent publication US20140364431A1, “Quinoline and cinnoline derivatives and their applications” (Shenyang Pharmaceutical University, priority 2011, published 2014)
In brackets after ≈: the same amount, converted by molar mass. Counter-ions that a name gives are not always drawn. Like-named read-outs stand apart in the source and are kept apart here.

Key:
[1] = target: T1, c-Met (His-tagged recombinant human Met (Amino acids 974-ends)) (Homo sapiens, UniProt P08581); assay: c-Met kinase assay (ELISA); assay type: biochemical; settings: 50 pM c-Met, 5 μM ATP, 20 min
T1 construct: His-tagged recombinant human Met (Amino acids 974-ends); His; host or cells: baculovirus expression
T1 sequence (P08581 974-1390 limits assumed): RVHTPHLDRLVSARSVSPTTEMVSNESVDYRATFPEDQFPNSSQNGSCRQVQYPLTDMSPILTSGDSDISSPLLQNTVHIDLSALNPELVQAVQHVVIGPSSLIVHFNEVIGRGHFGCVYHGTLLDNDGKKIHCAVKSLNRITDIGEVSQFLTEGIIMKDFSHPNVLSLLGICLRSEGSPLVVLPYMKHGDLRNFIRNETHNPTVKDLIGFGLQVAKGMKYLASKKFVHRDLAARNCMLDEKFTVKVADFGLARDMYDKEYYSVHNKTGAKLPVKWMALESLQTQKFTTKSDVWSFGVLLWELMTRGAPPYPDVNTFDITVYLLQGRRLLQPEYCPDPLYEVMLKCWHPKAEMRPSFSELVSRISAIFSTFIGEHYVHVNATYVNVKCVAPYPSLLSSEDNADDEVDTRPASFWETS
Description: c-Met kinase activity was measured with an ELISA reader.
The reaction mixture was removed by washing with 0.2 μg/mL conjugated horseradish peroxidase (HRP) monoclonal antibody specific for phosphotyrosine (PY20) detecting phosphorylation of the substrate polymer. 1M phosphoric acid was added to terminate the color, the chromogenic substrate (TMB) was tested by spectrophotometry at 450 nm.

[2] = tested on: H460 (human lung cancer cell); assay: In vitro anti-tumor cellular activity (MTT), H460; assay type: cell-based; settings: for IC50: Homo sapiens, read-out: H460 IC50
[3] = tested on: HT-29 (colon cancer cell); assay: In vitro anti-tumor cellular activity (MTT), HT-29; assay type: cell-based, human; settings: for IC50: Homo sapiens, read-out: HT-29 IC50
[4] = tested on: SMMC-7721 (hepatoma cell); assay: In vitro anti-tumor cellular activity (MTT), SMMC-7721; assay type: cell-based, human; settings: for IC50: Homo sapiens, read-out: SMMC-7721 IC50
[5] = tested on: U87MG (Human malignant glioblastoma cells); assay: In vitro anti-tumor cellular activity (MTT), U87MG; assay type: cell-based; settings: for IC50: Homo sapiens, U-87 MG, read-out: U87MG IC50
[6] = tested on: MKN-45 (human gastric carcinoma cell); assay: In vitro anti-tumor cellular activity (MTT), MKN-45; assay type: cell-based; settings: for IC50: Homo sapiens, read-out: MKN-45 IC50

| Molecule | IC50 [1] [nM] | IC50 ([2]; NCI-H460, MTT, 72 hours, H460) [µg/mL] | IC50 ([3]; MTT, 72 hours, HT-29) [µg/mL] | IC50 ([4]; MTT, 72 hours, SMMC-7721) [µg/mL] | IC50 ([5]; MTT, 72 hours, U87MG) [µg/mL] | IC50 ([6]; MTT, 72 hours, MKN-45) [µg/mL] | c-Met IC50 [1] [µg/mL] | H460 IC50 ([2]; MTT, 72 hours, H460) [µg/mL] | HT-29 IC50 ([3]; MTT, 72 hours, HT-29) [µg/mL] | SMMC-7721 IC50 ([4]; MTT, 72 hours, SMMC-7721) [µg/mL] | U87MG IC50 ([5]; MTT, 72 hours, U87MG) [µg/mL] | MKN-45 IC50 ([6]; MTT, 72 hours, MKN-45) [µg/mL] | IC50 ([2]; NCI-H460, 72 h) [µg/mL] | IC50 ([3]; HT-29, 72 h) [µg/mL] | IC50 ([4]; SMMC-7721, 72 h) [µg/mL] | IC50 ([5]; 72 h) [µg/mL] | IC50 ([6]; MKN-45, 72 h) [µg/mL] |
| --- | --- | --- | --- | --- | --- | --- | --- | --- | --- | --- | --- | --- | --- | --- | --- | --- | --- |
| COc1cc2c(Oc3ccc(NC(=O)c4nn(-c5ccc(Cl)cc5)c5ccccc5c4=O)cc3F)cnnc2cc1OCCCN1CCC(C)CC1 [Example 67, N-(3-fluoro-4-((6-methoxy-7-(3-(4-methylpiperidin-1-yl)propoxy)cinnolin-4-yl)oxy)phenyl)-1-(4-chlorophenyl)-4-oxo-1,4-dihydrocinnoline-3-carboxamide] | 1520 | 2.5 (≈ 3.46 µM) | 0.96 (≈ 1.33 µM) | 1.6 (≈ 2.21 µM) | 1.7 (≈ 2.35 µM) | 2.2 (≈ 3.04 µM) | – | – | – | – | – | – | – | – | – | – | – |
| COc1cc2c(Oc3ccc(NC(=O)c4cn(-c5ccc(F)cc5)c5ccccc5c4=O)cc3F)ccnc2cc1OCCCN1CCN(C)CC1 [Example 46, N-(3-fluoro-4-((6-methoxy-7-(3-(4-methyl-piperazin-1-yl)propoxy)quinolin-4-yl)oxy)phenyl)-4-oxo-1-(4-fluorophenyl)-1,4-dihydroquinoline-3-carboxamide dihydrochloride] | 1130 | 0.98 | 1.5 | 1.3 | 0.72 | 0.67 | – | – | – | – | – | – | – | – | – | – | – |
| N-(3-fluoro-4-((6-methoxy-7-(3-(4-methylpiperazin-1-yl)propoxy)quinolin-4-yl)oxy)phenyl)-1-(2-(trifluoromethyl)phenyl)-4-oxo-1,4-dihydrocinnoline-3-carboxamide [Example 44] | – | – | – | – | – | – | 1.1 | 1.6 | 1.2 | 2.1 | 0.84 | 1.8 | – | – | – | – | – |
| COc1cc2c(Oc3ccc(NC(=O)c4cn(-c5ccccc5F)c5ccccc5c4=O)cc3F)ccnc2cc1OCCCN1CCN(C)CC1 [Example 52, N-(3-fluoro-4-((6-methoxy-7-(3-(4-methylpiperazin-1-yl)propoxy)quinolin-4-yl)oxy)phenyl)-1-(2-fluorophenyl)-4-oxo-1,4-dihydroquinoline-3-carboxamide] | 2270 | 1.4 (≈ 1.98 µM) | 1.1 (≈ 1.56 µM) | 1.8 (≈ 2.55 µM) | 0.87 (≈ 1.23 µM) | 0.67 (≈ 0.949 µM) | – | – | – | – | – | – | – | – | – | – | – |
| N-(3-fluoro-4-((6-methoxy-7-(3-(4-methylpiperidin-1-yl)propoxy)quinolin-4-yl)oxy)phenyl)-1-(3,4-difluorophenyl)-4-oxo-1,4-dihydroquinoline-3-carboxamide [Example 58] | – | – | – | – | – | – | 0.72 | 1.4 | 0.95 | 1.1 | 2.1 | 1.8 | – | – | – | – | – |
| COc1cc2c(Oc3ccc(NC(=O)c4nn(-c5c(Cl)cccc5Cl)c5ccccc5c4=O)cc3F)ccnc2cc1OCCCN1CCN(C)CC1 [Example 32, N-(3-fluoro-4-((6-methoxy-7-(3-(4-methylpiperazin-1-yl)propoxy)quinolin-4-yl)oxy)phenyl)-1-(2,6-dichlorophenyl)-4-oxo-1,4-dihydrocinnoline-3-carboxamide] | 132 | – | – | – | – | – | – | – | – | – | – | – | 0.7 (≈ 0.924 µM) | 0.77 (≈ 1.02 µM) | 0.66 (≈ 0.871 µM) | 0.65 (≈ 0.858 µM) | 1.2 (≈ 1.58 µM) |
| COc1cc2c(Oc3ccc(NC(=O)c4nn(-c5cc(C(F)(F)F)ccc5Cl)c5ccccc5c4=O)cc3F)ccnc2cc1OCCCN1CCC(C)CC1 [Example 21, N-(3-fluoro-4-((6-methoxy-7-(3-(4-methylpiperidin-1-yl)propoxy)quinolin-4-yl)oxy)phenyl)-1-(2-chloro-5-(trifluoromethyl)phenyl)-4-oxo-1,4-dihydrocinnoline-3-carboxamide] | 1140 | 0.8 (≈ 1.01 µM) | 0.8 (≈ 1.01 µM) | 1.4 (≈ 1.77 µM) | 0.7 (≈ 0.886 µM) | 0.6 (≈ 0.759 µM) | – | – | – | – | – | – | – | – | – | – | – |
| COc1cc2c(Oc3ccc(NC(=O)c4nn(-c5ccc(F)cc5)c5ccccc5c4=O)cc3F)ccnc2cc1OCCCN1CCOCC1 [Example 36, N-(3-fluoro-4-((6-methoxy-7-(3-(morpholin-4-yl)propoxy)quinolin-4-yl)oxy)phenyl)-1-(4-fluorophenyl)-4-oxo-1,4-dihydrocinnoline-3-carboxamide] | 966 | 1.1 (≈ 1.59 µM) | 0.7 (≈ 1.01 µM) | 0.87 (≈ 1.25 µM) | 1.5 (≈ 2.16 µM) | 1.3 (≈ 1.87 µM) | – | – | – | – | – | – | – | – | – | – | – |
| COc1cc2c(Oc3ccc(NC(=O)c4cn(-c5ccccc5F)c5ccccc5c4=O)cc3F)ccnc2cc1OCCCN1CCC(C)CC1 [Example 47, N-(3-fluoro-4-((6-methoxy-7-(3-(4-methylpiperidin-1-yl)propoxy)quinolin-4-yl)oxy)phenyl)-1-(2-fluorophenyl)-4-oxo-1,4-dihydroquinoline-3-carboxamide] | 568 | 0.54 (≈ 0.766 µM) | 0.57 (≈ 0.809 µM) | 1.1 (≈ 1.56 µM) | 0.49 (≈ 0.695 µM) | 0.34 (≈ 0.482 µM) | – | – | – | – | – | – | – | – | – | – | – |
| COc1cc2c(Oc3ccc(NC(=O)c4cn(-c5ccccc5F)c5ccccc5c4=O)cc3F)ccnc2cc1OCCCN1CCCCC1 [Example 50, N-(3-fluoro-4-((6-methoxy-7-(3-(piperidin-1-yl)propoxy)quinolin-4-yl)oxy)phenyl)-1-(2-fluorophenyl)-4-oxo-1,4-dihydroquinoline-3-carboxamide] | 869 | 0.58 (≈ 0.84 µM) | 0.38 (≈ 0.55 µM) | 0.87 (≈ 1.26 µM) | 0.35 (≈ 0.507 µM) | 0.45 (≈ 0.651 µM) | – | – | – | – | – | – | – | – | – | – | – |
| COc1cc2c(Oc3ccc(NC(=O)c4nn(-c5ccccc5C(F)(F)F)c5ccccc5c4=O)cc3F)ccnc2cc1OCCCN1CCCC1.Cl.Cl [Example 1, N-(3-fluoro-4-((6-methoxy-7-(3-(pyrrolidin-1-yl)propoxy)quinolin-4-yl)oxy)phenyl)-1-(2-(trifluoromethyl)phenyl)-4-oxo-1,4-dihydrocinnoline-3-carboxamide dihydrochloride] | 62.5 | 0.04 | 0.18 | 0.57 | 0.18 | 0.27 | – | – | – | – | – | – | – | – | – | – | – |
| COc1cc2c(Oc3ccc(NC(=O)c4cn(-c5ccccc5Cl)c5ccccc5c4=O)cc3F)ccnc2cc1OCCCN1CCCCC1 [Example 53, N-(3-fluoro-4-((6-methoxy-7-(3-(piperidin-1-yl)propoxy)quinolin-4-yl)oxy)phenyl)-1-(2-chlorophenyl)-4-oxo-1,4-dihydroquinoline-3-carboxamide] | 707 | 0.79 (≈ 1.12 µM) | 0.93 (≈ 1.32 µM) | 0.29 (≈ 0.41 µM) | 0.21 (≈ 0.297 µM) | 0.47 (≈ 0.665 µM) | – | – | – | – | – | – | – | – | – | – | – |
| COc1cc2c(Oc3ccc(NC(=O)c4cn(-c5ccccc5C(F)(F)F)c5ccccc5c4=O)cc3F)ccnc2cc1OCCCN1CCC(C)CC1 [Example 57, N-(3-fluoro-4-((6-methoxy-7-(3-(4-methylpiperidin-1-yl)propoxy)quinolin-4-yl)oxy)phenyl)-4-oxo-1-(2-(trifluoromethyl)phenyl)-1,4-dihydroquinoline-3-carboxamide] | 1060 | 1.3 (≈ 1.72 µM) | 0.87 (≈ 1.15 µM) | 0.58 (≈ 0.768 µM) | 1.1 (≈ 1.46 µM) | 0.91 (≈ 1.21 µM) | – | – | – | – | – | – | – | – | – | – | – |
| COc1cc2c(Oc3ccc(NC(=O)c4nn(-c5cc(C(F)(F)F)ccc5Cl)c5ccccc5c4=O)cc3F)ccnc2cc1OCCCN1CCCCC1 [Example 20, N-(3-fluoro-4-((6-methoxy-7-(3-(piperidin-1-yl)propoxy)quinolin-4-yl)oxy)phenyl)-1-(2-chloro-5-(trifluoromethyl)phenyl)-4-oxo-1,4-dihydrocinnoline-3-carboxamide] | 1930 | 1.1 (≈ 1.42 µM) | 0.7 (≈ 0.902 µM) | 0.5 (≈ 0.644 µM) | 1.3 (≈ 1.67 µM) | 1.6 (≈ 2.06 µM) | – | – | – | – | – | – | – | – | – | – | – |
| N-(3-fluoro-4-((6-methoxy-7-(3-(piperidin-1-yl)propoxy)quinolin-4-yl)oxy)phenyl)-1-(4-fl uorophenyl)-4-oxo-1,4-dihydroquinoline-3-carboxamide dihydrochloride [Example 49] | – | – | – | – | – | – | 0.6 | 1.1 | 1.3 | 0.99 | 0.9 | 0.76 | – | – | – | – | – |
| COc1cc2c(Oc3ccc(NC(=O)c4cn(-c5ccccc5C(F)(F)F)c5ccccc5c4=O)cc3F)ccnc2cc1OCCCN1CCOCC1.Cl.Cl [Example 48, N-(3-fluoro-4-((6-methoxy-7-(3-(morpholin-4-yl)propoxy)quinolin-4-yl)oxy)phenyl)-4-oxo-1-(2-(trifluoromethyl)phenyl)-1,4-dihydroquinoline-3-carboxamide dihydrochloride] | 1350 | 0.7 | 0.65 | 0.56 | 0.88 | 1.1 | – | – | – | – | – | – | – | – | – | – | – |
| COc1cc2c(Oc3ccc(NC(=O)c4nn(-c5ccccc5Br)c5ccccc5c4=O)cc3F)ccnc2cc1OCCCN1CCN(C)CC1 [Example 35, N-(3-fluoro-4-((6-methoxy-7-(3-(4-methylpiperazin-1-yl)propoxy)quinolin-4-yl)oxy)phenyl)-1-(2-bromophenyl)-4-oxo-1,4-dihydrocinnoline-3-carboxamide] | 1430 | – | – | – | – | – | – | – | – | – | – | – | 2.5 (≈ 3.26 µM) | 0.9 (≈ 1.17 µM) | 1.5 (≈ 1.95 µM) | 1.3 (≈ 1.69 µM) | 2.1 (≈ 2.74 µM) |
